Tests used:
[1] = biological target: T1, NUAK family SNF1-like kinase 1 (Homo sapiens) (UniProt O60285); assay: Selectivity interaction (KinomeScan (DiscoverX)) EUB0000655a NUAK1; settings: at 10 µM
T1 sequence (whole entry): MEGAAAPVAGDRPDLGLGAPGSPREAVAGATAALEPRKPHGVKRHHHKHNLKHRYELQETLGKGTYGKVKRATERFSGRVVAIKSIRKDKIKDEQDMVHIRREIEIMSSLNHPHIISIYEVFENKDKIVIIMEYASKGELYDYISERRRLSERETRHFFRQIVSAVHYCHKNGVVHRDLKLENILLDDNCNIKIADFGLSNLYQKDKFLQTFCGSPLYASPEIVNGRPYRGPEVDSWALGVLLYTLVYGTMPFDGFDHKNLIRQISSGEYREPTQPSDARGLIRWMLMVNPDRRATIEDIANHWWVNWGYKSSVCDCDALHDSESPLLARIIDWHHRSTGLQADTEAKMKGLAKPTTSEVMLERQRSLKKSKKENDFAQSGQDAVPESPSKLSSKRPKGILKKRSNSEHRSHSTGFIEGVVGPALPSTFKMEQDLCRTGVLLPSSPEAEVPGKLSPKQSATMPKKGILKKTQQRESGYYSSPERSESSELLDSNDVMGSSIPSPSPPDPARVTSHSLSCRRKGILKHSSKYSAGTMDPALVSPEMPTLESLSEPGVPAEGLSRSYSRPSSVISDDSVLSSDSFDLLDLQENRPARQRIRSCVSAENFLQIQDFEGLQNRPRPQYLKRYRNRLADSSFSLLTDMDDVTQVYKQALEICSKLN

[2] = biological target: 5-hydroxytryptamine receptor 1B (Homo sapiens) (UniProt P28222); assay: Selectivity interaction (Panel of kinases, GPCRs, ion channels and transporters (enzymatic assay)) EUB0000266bCl HTR1B
Sequence of 5-hydroxytryptamine receptor 1B (Homo sapiens) (P28222 whole entry): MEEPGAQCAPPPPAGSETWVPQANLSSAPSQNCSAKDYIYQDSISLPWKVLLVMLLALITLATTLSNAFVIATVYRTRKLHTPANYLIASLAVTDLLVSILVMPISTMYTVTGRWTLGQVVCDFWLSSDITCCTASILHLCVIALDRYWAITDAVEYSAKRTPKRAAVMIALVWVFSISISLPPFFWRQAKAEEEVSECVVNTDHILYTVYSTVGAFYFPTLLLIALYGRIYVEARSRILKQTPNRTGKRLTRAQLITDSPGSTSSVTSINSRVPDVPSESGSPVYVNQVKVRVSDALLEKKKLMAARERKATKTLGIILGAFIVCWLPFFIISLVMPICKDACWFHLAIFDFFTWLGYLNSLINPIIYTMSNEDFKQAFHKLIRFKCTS

[3] = biological target: Wee1-like protein kinase 2 (Homo sapiens) (UniProt P0C1S8); settings: at 10 µM
[4] = biological target: T2, Aurora kinase C (Homo sapiens) (UniProt Q9UQB9); settings: at 10 µM
T2 sequence (whole entry): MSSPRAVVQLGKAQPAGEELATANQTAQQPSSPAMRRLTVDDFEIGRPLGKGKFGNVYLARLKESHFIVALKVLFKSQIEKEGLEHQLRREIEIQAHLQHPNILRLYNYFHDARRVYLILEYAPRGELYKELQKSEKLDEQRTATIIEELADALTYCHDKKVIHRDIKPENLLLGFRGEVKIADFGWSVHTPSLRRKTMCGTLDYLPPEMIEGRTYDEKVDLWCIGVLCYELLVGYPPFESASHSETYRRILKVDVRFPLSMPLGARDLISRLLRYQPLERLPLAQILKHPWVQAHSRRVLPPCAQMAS

[5] = biological target: Polycystin-1 (Homo sapiens) (UniProt P98161); assay: Selectivity interaction (ActivX KiNativ screen (kinase selectivity in THP-1 cell lysates)) EUB0000639a PKD1; format: subcellular; settings: lysate
Sequence of Polycystin-1 (Homo sapiens) (P98161 24-4303 limits assumed): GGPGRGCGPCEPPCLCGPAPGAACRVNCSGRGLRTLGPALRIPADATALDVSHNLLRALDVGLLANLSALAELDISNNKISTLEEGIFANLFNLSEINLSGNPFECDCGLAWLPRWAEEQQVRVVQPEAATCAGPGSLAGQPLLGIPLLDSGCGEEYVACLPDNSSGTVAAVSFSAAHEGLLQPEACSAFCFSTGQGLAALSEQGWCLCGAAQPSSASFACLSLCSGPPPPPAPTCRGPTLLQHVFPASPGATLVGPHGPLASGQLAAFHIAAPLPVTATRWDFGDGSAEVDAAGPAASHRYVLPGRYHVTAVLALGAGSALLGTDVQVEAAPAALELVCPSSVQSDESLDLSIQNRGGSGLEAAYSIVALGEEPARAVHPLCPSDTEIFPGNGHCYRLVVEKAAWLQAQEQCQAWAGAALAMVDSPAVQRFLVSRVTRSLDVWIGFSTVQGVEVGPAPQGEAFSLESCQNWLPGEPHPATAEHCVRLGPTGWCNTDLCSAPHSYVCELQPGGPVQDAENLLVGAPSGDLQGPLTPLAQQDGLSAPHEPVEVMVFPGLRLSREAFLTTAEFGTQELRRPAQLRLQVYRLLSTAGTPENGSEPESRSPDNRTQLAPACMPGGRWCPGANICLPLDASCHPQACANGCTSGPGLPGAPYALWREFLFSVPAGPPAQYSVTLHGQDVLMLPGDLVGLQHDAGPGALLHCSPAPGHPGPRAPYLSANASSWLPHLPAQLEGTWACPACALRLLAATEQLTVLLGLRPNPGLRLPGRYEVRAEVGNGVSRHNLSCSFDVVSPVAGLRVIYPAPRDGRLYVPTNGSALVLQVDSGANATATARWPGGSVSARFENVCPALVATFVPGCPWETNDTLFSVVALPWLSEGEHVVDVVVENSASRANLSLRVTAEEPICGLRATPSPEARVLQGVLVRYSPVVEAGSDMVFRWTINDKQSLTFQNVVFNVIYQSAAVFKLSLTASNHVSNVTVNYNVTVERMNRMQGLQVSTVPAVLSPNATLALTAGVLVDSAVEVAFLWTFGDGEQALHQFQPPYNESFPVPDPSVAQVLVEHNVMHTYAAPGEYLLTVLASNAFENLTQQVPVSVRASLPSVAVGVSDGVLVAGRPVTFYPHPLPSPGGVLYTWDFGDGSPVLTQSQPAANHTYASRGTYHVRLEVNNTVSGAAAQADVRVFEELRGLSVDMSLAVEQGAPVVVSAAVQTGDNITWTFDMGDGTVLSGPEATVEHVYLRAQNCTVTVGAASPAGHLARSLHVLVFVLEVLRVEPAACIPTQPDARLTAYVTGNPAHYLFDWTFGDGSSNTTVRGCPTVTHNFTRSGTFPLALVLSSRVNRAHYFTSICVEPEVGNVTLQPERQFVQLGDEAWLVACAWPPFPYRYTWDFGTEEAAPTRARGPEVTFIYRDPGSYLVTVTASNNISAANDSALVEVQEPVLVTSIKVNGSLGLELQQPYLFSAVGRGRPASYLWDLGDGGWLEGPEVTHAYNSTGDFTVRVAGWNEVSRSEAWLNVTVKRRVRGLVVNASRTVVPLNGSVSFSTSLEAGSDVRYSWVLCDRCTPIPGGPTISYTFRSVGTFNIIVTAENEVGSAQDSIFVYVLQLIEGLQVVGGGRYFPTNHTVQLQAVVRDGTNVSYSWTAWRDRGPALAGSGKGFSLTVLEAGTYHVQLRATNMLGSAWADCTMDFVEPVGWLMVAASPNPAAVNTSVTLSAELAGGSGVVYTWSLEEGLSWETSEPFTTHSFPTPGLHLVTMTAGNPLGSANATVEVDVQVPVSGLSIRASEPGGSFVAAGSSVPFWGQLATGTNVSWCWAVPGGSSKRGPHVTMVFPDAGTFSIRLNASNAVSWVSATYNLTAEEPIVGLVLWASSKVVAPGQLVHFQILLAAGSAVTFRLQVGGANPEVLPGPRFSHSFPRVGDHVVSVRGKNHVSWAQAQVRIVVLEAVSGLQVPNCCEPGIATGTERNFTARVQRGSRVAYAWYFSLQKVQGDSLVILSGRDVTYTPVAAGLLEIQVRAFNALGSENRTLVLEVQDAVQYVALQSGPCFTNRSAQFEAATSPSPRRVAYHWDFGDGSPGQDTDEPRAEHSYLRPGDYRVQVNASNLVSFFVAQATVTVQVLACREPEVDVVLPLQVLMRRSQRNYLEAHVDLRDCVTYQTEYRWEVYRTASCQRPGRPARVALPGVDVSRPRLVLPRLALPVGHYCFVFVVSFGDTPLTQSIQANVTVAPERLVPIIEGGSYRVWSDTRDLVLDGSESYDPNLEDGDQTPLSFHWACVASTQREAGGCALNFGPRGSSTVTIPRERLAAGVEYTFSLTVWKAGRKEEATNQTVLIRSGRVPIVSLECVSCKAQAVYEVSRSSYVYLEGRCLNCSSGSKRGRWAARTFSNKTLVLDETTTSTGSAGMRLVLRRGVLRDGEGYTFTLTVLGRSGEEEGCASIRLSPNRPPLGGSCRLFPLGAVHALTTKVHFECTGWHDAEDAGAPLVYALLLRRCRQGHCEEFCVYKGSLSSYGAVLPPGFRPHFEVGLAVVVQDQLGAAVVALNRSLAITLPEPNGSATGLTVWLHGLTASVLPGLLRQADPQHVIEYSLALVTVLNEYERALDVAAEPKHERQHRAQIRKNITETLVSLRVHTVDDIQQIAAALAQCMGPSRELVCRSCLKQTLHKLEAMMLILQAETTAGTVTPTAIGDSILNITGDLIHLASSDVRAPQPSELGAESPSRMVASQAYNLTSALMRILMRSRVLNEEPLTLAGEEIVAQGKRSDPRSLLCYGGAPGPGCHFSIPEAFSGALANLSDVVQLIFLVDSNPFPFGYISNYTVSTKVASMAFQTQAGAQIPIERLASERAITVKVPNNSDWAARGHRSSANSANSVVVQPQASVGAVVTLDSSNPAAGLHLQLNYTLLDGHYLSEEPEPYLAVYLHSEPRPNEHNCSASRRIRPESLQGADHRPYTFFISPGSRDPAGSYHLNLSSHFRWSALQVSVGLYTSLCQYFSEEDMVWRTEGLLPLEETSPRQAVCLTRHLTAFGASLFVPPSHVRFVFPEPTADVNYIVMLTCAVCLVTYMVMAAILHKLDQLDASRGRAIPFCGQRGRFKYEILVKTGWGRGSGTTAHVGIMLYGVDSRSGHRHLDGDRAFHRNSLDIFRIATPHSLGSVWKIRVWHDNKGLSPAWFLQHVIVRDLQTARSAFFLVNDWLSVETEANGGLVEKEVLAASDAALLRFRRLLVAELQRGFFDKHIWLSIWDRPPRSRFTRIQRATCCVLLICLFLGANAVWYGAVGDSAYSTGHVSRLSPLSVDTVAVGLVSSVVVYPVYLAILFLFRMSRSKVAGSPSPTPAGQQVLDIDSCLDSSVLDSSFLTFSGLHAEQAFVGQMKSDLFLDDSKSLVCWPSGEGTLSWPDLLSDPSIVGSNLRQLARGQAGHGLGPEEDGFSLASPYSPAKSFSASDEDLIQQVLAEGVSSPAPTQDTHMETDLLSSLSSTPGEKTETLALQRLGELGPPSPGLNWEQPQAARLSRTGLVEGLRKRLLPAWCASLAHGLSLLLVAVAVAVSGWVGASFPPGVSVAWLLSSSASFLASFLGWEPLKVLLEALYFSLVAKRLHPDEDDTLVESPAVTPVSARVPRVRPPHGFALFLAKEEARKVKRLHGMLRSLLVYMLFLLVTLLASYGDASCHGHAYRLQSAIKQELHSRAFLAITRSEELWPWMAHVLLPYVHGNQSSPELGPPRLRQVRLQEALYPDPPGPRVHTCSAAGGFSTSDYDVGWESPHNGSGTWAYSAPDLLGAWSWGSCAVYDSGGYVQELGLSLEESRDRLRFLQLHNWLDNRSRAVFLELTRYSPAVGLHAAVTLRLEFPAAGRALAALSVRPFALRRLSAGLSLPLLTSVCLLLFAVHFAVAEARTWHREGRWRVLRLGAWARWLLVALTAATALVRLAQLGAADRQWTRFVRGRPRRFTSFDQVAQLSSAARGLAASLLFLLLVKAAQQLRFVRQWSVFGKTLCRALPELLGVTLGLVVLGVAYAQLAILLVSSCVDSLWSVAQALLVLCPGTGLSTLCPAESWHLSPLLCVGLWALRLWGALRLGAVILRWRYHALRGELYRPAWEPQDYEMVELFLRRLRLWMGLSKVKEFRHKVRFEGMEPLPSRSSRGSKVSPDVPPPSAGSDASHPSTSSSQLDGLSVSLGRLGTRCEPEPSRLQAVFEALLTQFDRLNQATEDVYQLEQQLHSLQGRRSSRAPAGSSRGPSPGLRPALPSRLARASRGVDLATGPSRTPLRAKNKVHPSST

PXR (NR1I2) = PXR (NR1I2) (Homo sapiens, UniProt O75469); assay: Selectivity interaction (Panel of kinases, GPCRs, ion channels and transporters (enzymatic assay)) EUB0000223bCl NR1I2
Sequence of PXR (NR1I2) (O75469 whole entry): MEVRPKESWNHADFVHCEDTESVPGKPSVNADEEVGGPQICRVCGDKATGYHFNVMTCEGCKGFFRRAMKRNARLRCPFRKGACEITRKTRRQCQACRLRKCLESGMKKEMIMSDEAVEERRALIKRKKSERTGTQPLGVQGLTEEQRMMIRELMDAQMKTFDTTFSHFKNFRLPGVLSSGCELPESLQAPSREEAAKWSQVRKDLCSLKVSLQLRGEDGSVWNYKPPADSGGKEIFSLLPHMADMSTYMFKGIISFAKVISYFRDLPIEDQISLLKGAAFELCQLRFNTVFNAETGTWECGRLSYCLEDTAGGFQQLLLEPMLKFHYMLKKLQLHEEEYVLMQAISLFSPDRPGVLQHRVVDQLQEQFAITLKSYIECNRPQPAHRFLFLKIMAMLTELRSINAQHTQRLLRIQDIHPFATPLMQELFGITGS

[6] = biological target: T3, Dual specificity tyrosine-phosphorylation-regulated kinase 3 (Homo sapiens) (UniProt O43781); assay: Selectivity interaction (SelectScreen profiling (Invitrogen)) EUB0000607a DYRK3; settings: at 2 µM
T3 sequence (whole entry): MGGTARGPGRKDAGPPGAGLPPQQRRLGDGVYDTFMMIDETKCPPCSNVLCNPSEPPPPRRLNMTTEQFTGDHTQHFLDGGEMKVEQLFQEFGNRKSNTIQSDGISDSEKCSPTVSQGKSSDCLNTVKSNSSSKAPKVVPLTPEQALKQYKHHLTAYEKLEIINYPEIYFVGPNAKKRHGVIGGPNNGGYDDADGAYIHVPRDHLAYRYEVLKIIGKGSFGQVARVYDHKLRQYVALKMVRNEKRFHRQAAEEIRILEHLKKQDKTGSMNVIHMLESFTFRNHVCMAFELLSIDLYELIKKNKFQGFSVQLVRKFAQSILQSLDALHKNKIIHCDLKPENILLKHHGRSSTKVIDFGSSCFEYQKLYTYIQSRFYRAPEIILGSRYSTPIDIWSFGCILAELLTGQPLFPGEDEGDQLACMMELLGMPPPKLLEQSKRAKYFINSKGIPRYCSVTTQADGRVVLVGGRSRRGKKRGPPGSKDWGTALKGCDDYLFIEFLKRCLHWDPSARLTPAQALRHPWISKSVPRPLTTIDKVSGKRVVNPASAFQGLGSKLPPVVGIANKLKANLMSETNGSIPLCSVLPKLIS

[7] = biological target: Ribosomal protein S6 kinase alpha-6 (Homo sapiens, UniProt Q9UK32); assay: Selectivity interaction (SelectScreen profiling (Invitrogen)) EUB0000607a RPS6KA6; settings: at 2 µM
[8] = biological target: T4, Aurora kinase A (Homo sapiens) (UniProt O14965); assay: Selectivity interaction (KinomeScan (DiscoverX)) EUB0001619a STK6; settings: at 1 µM
T4 sequence (whole entry): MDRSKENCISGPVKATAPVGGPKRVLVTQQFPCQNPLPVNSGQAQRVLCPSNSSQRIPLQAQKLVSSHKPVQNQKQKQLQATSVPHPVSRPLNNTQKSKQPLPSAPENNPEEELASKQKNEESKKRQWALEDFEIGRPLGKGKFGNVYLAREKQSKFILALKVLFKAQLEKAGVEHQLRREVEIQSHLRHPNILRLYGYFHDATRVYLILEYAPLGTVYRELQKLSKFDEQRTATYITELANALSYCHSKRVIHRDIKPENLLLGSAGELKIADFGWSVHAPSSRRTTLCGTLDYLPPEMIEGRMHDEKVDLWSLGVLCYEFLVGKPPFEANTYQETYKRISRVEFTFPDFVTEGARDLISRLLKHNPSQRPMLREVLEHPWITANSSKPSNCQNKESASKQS

In the case of `CN(C)CCOc1ccc(-c2nc(-c3ccncc3)c(-c3ccc4c(c3)CC/C4=N\O)[nH]2)cc1`, the % of control [1] is reported as 100%.

Molecule `CCn1c(-c2nc3cc(C(=O)N4CCCC(N)C4)ccc3n2C)cc2ccccc21` (stereo not drawn) has a pXC50 [2] of under 4.5 M.

For `Cc1cc([C@@H](C)Nc2ccccc2C(=O)O)c2nc(N3CCOCC3)cc(=O)n2c1` [AZD-6482], the % of control [3] was 100% and the % of control [4] was 93%.

Work on `CC[C@@H]1[C@H](F)C(=O)N[C@@H]1COc1nccc2cc(C(N)=O)c(OC)cc12` [ZIMLOVISERTIB] yielded a % of inhibition ([5]; at 0.01 µM) of -7.2%, a % of inhibition ([5]; at 0.04 µM) of -3.5% and a % of inhibition ([5]; at 0.2 µM) of -8.9%. For the same molecule, the % of inhibition ([5]; at 1 µM) was 8% and the % of inhibition ([5]; at 5 µM) was 8.9%.

Molecule `COc1cc(C(=O)N2CC[C@@H](O)[C@@H](N)C2)cc2nc(-c3cc4ccccc4n3CC3CC3)n(C)c12` has an XC50 (PXR (NR1I2)) of over 50.1 µM.

Molecule `CNC(=O)Nc1ccc(-c2nc(N3CC4CCC(C3)O4)c3cnn(C4CCC5(CC4)OCCO5)c3n2)cc1` has a % of inhibition [6] of -1% and a % of inhibition [7] of 12%.

Molecule `N#Cc1cccc(-c2c[nH]c3ncnc(N4CCOCC4)c23)c1` has a % of control [8] of 57%.
